Measurements as given in patent US6730675B2 (AstraZeneca AB, priority 1999, dated 2004).

Each molecule was assayed on CCI rats (thermal hyperalgesia) (assay: Test C: Neuropathic pain model (Chronic Constriction Injury), thermal hyperalgesia paw-withdrawal test). Conditions: oral, at the MED, compared to vehicle-treated animals.
Assay type: in vivo, rat
Description: Test C: Neuropathic Pain Model (Chronic Constriction Injury): […]

SMILES	Test C % Inh. (percent decrease of hyperalgesia) at MED
Cc1ccsc1Cn1nc(O)c2[nH]c3cc(Cl)ccc3c(=O)c2c1=O [Ex. 2, 7-Chloro-4-hydroxy-2-[2-(3-methyl)thienylmethyl]-1,2,5,10-tetrahydropyridazino[4,5-b]quinoline-1,10-dione]	−15%

Same assay, conditions: oral, three times daily for 5 days, dose giving statistically significant decrease in hyperalgesia

SMILES	Test C MED (minimum effective dose)
Cc1ccsc1Cn1nc(O)c2[nH]c3cc(Cl)ccc3c(=O)c2c1=O [Ex. 2, 7-Chloro-4-hydroxy-2-[2-(3-methyl)thienylmethyl]-1,2,5,10-tetrahydropyridazino[4,5-b]quinoline-1,10-dione]	30 mg/kg/day

Each molecule was assayed against T1, NMDA receptor glycine site (Rattus norvegicus, UniProt P35439) (assay: Test A: Inhibition of binding of [3H]-MDL105,519 to brain membranes). Conditions: displacement of 1.2 nM [3H]MDL105,519, brain membranes.
T1 construct: The rat brain membranes used in the experiments were obtained from Analytical Biological Services Inc; tissue Analytical Biological Services Inc; host or cells: rat brain membranes (cerebral cortex and hippocampus, male Sprague Dawley rats)
Description: Test A: Inhibition of Binding of [^3H]-MDL105,519:
Binding of compounds to the NMDA receptor glycine site may be assessed by measuring the ability of test compounds to inhibit the binding of tritiated MDL105,519 to brain membranes bearing the receptor.
Briefly, fresh brain tissue including cerebral cortex and hippocampus from male Sprague Dawley rats was homogenized in 0.32 M sucrose and centrifuged at low speed to separate cellular membranes from other cellular components. The membranes were then washed 3 times using deionized water, followed by treatment with 0.04% Triton X-100. Finally, membranes were washed six times in 50 mM Tris citrate buffer, pH 7.4, and frozen at −80° C. until use.
[^3H]MDL105,519 (72 Ci/mmol) was purchased from Amersham. Cold MDL105,519 was purchased from Sigma/RBI. Binding assays were performed substantially in accordance with the protocol of B. M. Baron et al., J. Phannacol. […] On the day of the experiment, brain membranes were thawed at room temperature and suspended in 50 mM tris acetate buffer, pH 7.4 (“TAB”). Seventy-five micro grams per milliliter protein (by using the BioRad dye) were used for competition binding. The experiments were carried out using 96-well plates. […] Non specific binding was determined by using 100 μM of unlabeled MDL105,519. […] After incubation, unbound [^3H]MDL105,519 was removed by filtration onto GF/B Unifilter plates using a Packard harvester. Filters were washed four times with ice cold TAB (total of 1.2 mL buffer). The plates were dried overnight at room temperature and bound radioactivity was measured on a Packard TopCount after the addition of 45 μL per well of the MICROSCINT O.
Human Brain Membranes: Human brain membranes were obtained from Analytical Biological Services Inc., and assays were performed as described for rat membranes.
Data analysis: Data was analyzed using a Microsoft Excel spreadsheet and GraphPad Prizm software and potency of compounds is expressed as the Ki (nM).

Ki	SMILES
434 nM	Cc1[nH]cnc1Cn1nc(O)c2nc3cc(Cl)ccc3c(O)c2c1=O
72 nM	COC(=O)c1ccc(Cn2nc(O)c3[nH]c4cc(Cl)ccc4c(=O)c3c2=O)o1 [Ex. 8, 7-Chloro-4-hydroxy-2-(5-methoxycarbonyl(furan-2-yl)methyl)-1,2,5,10-tetrahydropyirdazino[4,5-b]quinolin-1,10-dione]
24.8 nM	Cc1cc(Cn2nc(O)c3[nH]c4cc(Cl)ccc4c(=O)c3c2=O)c(C)o1 [Ex. 1, 7-Chloro-4-hydroxy-2-[3-(2,5-dimethyl)furanylmethyl]-1,2,5,10-tetrahydropyridazino[4,5-b]quinoline-1,10-dione]
298 nM	O=c1c2ccc(Cl)cc2[nH]c2c(O)nn(Cc3ccc(-c4ccccc4Cl)o3)c(=O)c12 [Ex. 6, 7-Chloro-4-hydroxy-2-{[5-(2-chlorophenyl)(2-furyl)]methyl}-1,2,5,10-tetrahydropyridazino[4,5-b]quinoline-1,2-dione]
28 nM	Cc1ccc(Cn2nc(O)c3[nH]c4cc(Cl)ccc4c(=O)c3c2=O)s1 [Ex. 9, 7-Chloro-4-hydroxy-2-(5-methylthien-2-ylmethyl)-1,2,5,10-tetrahydropyridazino[4,5-b]quinoline-1,10-dione]
28 nM	Cc1occc1Cn1nc(O)c2[nH]c3cc(Cl)ccc3c(=O)c2c1=O [Ex. 4, 7-Chloro-4-hydroxy-2-[(2-methyl(furan-3-yl))methyl]-1,2,5,10-tetrahydropyridazinol[4,5-b]quinonline-1,10-dione]

SMILES	Ki
Cc1c(Cn2nc(O)c3[nH]c4cc(Cl)ccc4c(=O)c3c2=O)sc2ccccc12	161 nM
